Bounds are passed on as bounds.

Holding throughout (type): biochemical
The target in one assay is prolyl oligopeptidase (Ovis aries, UniProt A0ACI6PCU6). In words: Specificity of apstatin: prolyl oligopeptidase. The following applies: purified, lamb kidney; Bk, pH 6.8, HPLC-1. An excerpt:
(§1) Enzymes--Membrane-bound aminopeptidase P was purified to homogeneity from bovine lung (14) and from rat lung. Partially purified membrane-bound aminopeptidase P from human lung was obtained by treatment of lung microsomes with phosphatidylinositol-specific phospholipase C (B. thuringiensis) (ICN, Costa Mesa, Calif.) followed by centrifugation as described previously (14). Membrane dipeptidase was purified from rat lung microsomes (manuscript in preparation). Recombinant E. coli aminopeptidase P (22) and purified lamb kidney prolyl oligopeptidase (23) were generally supplied by Dr. Tadashi Yoshimoto (Nagasaki University). Purified porcine kidney prolidase and purified porcine kidney aminopeptidase M was obtained from Sigma (St. Louis, Mo.).
(§2) Specificity of Apstatin--Apstatin was assayed for its ability to inhibit several other peptidases. […] Unless otherwise indicated, the source of each enzyme activity was a detergent extract of bovine lung prepared as described in (12-13). Activities were determined by a modification of the fluorescent assay described above (indicated by "FLUO") or by HPLC separation and quantitation of reaction products using the method described in (12) (method "HPLC-1") or the method described below (method "HPLC-2"). […]

The next assay has as its target T1, prolidase (Sus scrofa, UniProt A0A5G2QQV1).
T1 construct: Purified porcine kidney prolidase and purified porcine kidney aminopeptidase M was obtained from Sigma; purchased Sigma (St. Louis, Mo.); host or cells: porcine kidney
T1 sequence (A0A5G2QQV1 1-463): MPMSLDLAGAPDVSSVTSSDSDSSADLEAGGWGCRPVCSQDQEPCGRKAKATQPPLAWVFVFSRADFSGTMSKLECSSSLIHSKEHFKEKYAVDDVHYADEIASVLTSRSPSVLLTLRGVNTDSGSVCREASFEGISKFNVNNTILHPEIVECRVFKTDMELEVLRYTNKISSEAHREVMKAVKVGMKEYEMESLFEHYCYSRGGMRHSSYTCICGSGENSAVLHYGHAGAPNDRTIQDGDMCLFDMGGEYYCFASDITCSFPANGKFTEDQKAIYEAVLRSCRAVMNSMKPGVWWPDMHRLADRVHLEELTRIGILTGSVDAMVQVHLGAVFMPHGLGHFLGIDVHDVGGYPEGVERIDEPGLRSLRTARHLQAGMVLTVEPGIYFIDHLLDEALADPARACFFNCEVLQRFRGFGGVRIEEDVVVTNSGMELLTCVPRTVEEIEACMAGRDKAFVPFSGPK
Description: Specificity of apstatin: prolidase. To be noted: purified, porcine kidney; Arg-Pro, pH 8.0, HPLC-2.
Text: as §1, §2

Assay [1] deals with dipeptidyl-peptidase I-like activity. Description: Specificity of apstatin: dipeptidyl-peptidase I-like activity. To be noted: detergent extract of bovine lung; Gly-Phe-β-NA, pH 6.5, HPLC-2. How it is done:
as §2

Chain of prolyl oligopeptidase (A0ACI6PCU6 entry or part of it): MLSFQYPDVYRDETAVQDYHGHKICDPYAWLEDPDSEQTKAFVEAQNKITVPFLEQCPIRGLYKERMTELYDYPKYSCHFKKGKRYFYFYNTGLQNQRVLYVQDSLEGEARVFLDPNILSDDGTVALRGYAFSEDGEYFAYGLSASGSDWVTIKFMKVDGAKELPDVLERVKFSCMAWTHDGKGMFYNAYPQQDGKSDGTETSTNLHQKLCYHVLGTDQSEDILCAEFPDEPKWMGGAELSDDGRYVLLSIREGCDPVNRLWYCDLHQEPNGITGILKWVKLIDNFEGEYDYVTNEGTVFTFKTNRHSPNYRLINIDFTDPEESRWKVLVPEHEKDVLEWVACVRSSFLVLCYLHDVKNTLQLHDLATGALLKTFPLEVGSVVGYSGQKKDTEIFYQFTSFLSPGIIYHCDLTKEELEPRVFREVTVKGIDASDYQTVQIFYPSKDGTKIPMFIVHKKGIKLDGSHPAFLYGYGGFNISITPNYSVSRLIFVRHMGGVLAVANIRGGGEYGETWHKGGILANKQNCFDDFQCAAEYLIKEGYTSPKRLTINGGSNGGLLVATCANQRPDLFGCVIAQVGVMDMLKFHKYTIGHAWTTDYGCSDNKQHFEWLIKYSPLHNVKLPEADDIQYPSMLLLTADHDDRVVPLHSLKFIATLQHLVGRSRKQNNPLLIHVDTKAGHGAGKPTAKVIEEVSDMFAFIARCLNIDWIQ

Turning to `C[C@H](NC(=O)[C@@H]1CCCN1C(=O)[C@@H]1CCCN1C(=O)[C@@H](O)[C@H](N)Cc1ccccc1)C(N)=O` [apstatin, N-[(2S, 3R)-3-amino-2-hydroxy-4-phenylbutanoyl]-L-prolyl-L-prolyl-Lalaninamide], the 50% inhibitory concentration (IC50) at prolyl oligopeptidase is > 800 µM; at prolidase, 4.9 µM; in assay [1], > 800 µM.

Broadly, the IC50 is the concentration needed to halve the response being measured. Read a low IC50 as inhibition by little substance.

Values taken from US5656603A (Loyola University of Chicago, priority 1995, dated 1997).
